For assay [1], the system named is Alliiroseovarius crassostreae (DSM 16950). The assay can be described thus: Final growth yield on sole N or P source, DSM 16950. The assay is classed as cell-based. How it is done:
(§1) All strains used in this work were axenic. Pseudomonas strains were maintained on Luria Bertani (LB) agar (1.5% w/v) medium at 30 °C. Stappia stellulata and the Roseobacter strains were maintained on Marine Broth agar (1.5% w/v) medium at 30 °C. […] For all growth and proteomics experiments cultures were grown in an adapted minimal A medium[44] using Na-Succinate (20 mM) as the sole carbon source and, where applicable, 10 mM NH4Cl was added as the sole N source. 2AEP and KH2PO4 were added to a final concentration of 100 µM or 1.5 mM as specified in the text and figure legends. Pseudomonas strains were pre-cultured in minimal medium A containing 100 µM Pi and 1.5 mM NH4Cl to ensure adequate growth while minimising the potential for carryover of residual nutrients into experimental cultures. Culture experiments were performed using a FLUOStar Omega 96-well plate reader using Sarstedt 96-well plates incubated at 30°C, shaking at 200 rpm. […] For all other growth and proteomics experiments these marine bacteria were grown in Sea Salts media, with Pi buffer replaced by HEPES buffer. The method used for quantifying extracellular Pi is detailed in the Supplementary Materials.
(§2) Table S1 Final growth yields (mean OD540 ± standard deviation) of Stappia stellulata (DSM 5886), Alliiroseovarius crassostreae (DSM 16950), Alliiroseovarius sediminilitoris (DSM 29439), Thalassobius aestuarii (DSM 15283), and Shimia marina (DSM26895) on 2AEP as sole N or P source with corresponding negative and positive controls. All conditions were performed in triplicate.

In assay [2] the test system is Thalassobius aestuarii (DSM 15283). Kind of assay: Final growth yield on sole N or P source, DSM 15283. The assay is classed as cell-based. How it is done:
as §1, §2

In assay [3] the test system is Alliiroseovarius sediminilitoris (DSM 29439). Kind of assay: Final growth yield on sole N or P source, DSM 29439. Type of assay: cell-based. How it is done:
as §1, §2

Assay [4] concerns Pseudomonas putida BIRD-1. Kind of assay: Growth of P. putida BIRD-1 on 2AEP. Type of assay: cell-based.
Method: All strains used in this work were axenic. Pseudomonas strains were maintained on Luria Bertani (LB) agar (1.5% w/v) medium at 30 °C. […] For all growth and proteomics experiments cultures were grown in an adapted minimal A medium[44] using Na-Succinate (20 mM) as the sole carbon source and, where applicable, 10 mM NH4Cl was added as the sole N source. 2AEP and KH2PO4 were added to a final concentration of 100 µM or 1.5 mM as specified in the text and figure legends. Pseudomonas strains were pre-cultured in minimal medium A containing 100 µM Pi and 1.5 mM NH4Cl to ensure adequate growth while minimising the potential for carryover of residual nutrients into experimental cultures. Culture experiments were performed using a FLUOStar Omega 96-well plate reader using Sarstedt 96-well plates incubated at 30°C, shaking at 200 rpm.
The test system of assay [5] is Shimia marina (DSM26895). Kind of assay: Final growth yield on sole N or P source, DSM 26895. The assay is classed as cell-based. How it is done:
as §1, §2

Assay [6] relates to E. coli PhnD. Particulars: read-out: Kd (μM) PhnD Ec, cited from earlier work.
In assay [7] the test system is Stappia stellulata (DSM 5886). The assay can be described thus: Final growth yield on sole N or P source, DSM 5886. Type of assay: cell-based. How it is done: as §1, §2
The target in assay [8] is S. stellulata AepX. The assay can be described thus: Microscale thermophoresis ligand binding of recombinant S. stellulata AepX. The conditions noted are these: for Kd: read-out: Kd (μM) AepX Ss. On the set-up: species or system Stappia stellulata. How it is done:
Finally, we determined the substrate specificity of recombinant S. stellulata AepX towards 2AEP and other (alkyl)phosphonates using microscale thermophoresis[53],[54].
Recombinant AepX was over-produced and purified to homogeneity using methods described in[53]. Binding affinity was determined by microscale thermophoresis using a Monolith NT.115 instrument (NanoTemper Technologies GmbT, Germany) following the protocols described in[53],[54]. A detailed protocol is outlined in the Supplementary Materials. […]
pET21a::aepXSs was sequence verified by automated DNA sequencing (Eurofins, Germany) and introduced to E. coli BL21(DE3) for over-production of recombinant AepX with a C-terminal […]
E. coli BL21(DE3) harbouring pET21a::aepXSs was grown in LB broth with 100 µg mL-1 ampicillin in a culture volume of 1 L contained within a 2 L baffled flask. […]
The binding affinity of AepX for phosphonate ligands was determined using Microscale Thermophoresis (MST) with a Monolith NT.115 instrument (NanoTemper Technologies, Germany).
AepX (100 nM) was labelled with 2nd Generation RED-tris-NTA dye (Nanotemper Technologies, Germany) in 20 mM HEPES pH 7.5 with 200 mM NaCl and 0.005% (v/v) Tween-20 (MST buffer) according to the manufacturer’s instructions. […] 4 µL of each protein-ligand mixture was loaded into Monolith NT.115 Premium Capillaries (Nanotemper Technologies, Germany) and thermophoresis was measured at 22 °C for 22 s with 60 % LED power and High MST power. Data from at least two independent titrations were combined and analysed using the MO.Affinity Analysis software version 2.3 (Nanotemper Technologies, Germany), using the early thermophoresis data at 1 – 2.5 seconds in the experiment for analysis. […]
Figure S7. Binding affinities for selected phosphonates by the Stappia stellulata AepX substrate binding protein determined by microscale thermophoresis. […]

Like-named read-outs stand apart in the source and are kept apart here.

As a reminder, the Kd is the equilibrium constant for the complex coming apart. Turning to `NCCP(=O)(O)O` [2-Aminoethylphosphonate, 2-aminoethylphosphonate], the “Final growth yield (mean OD540 ± standard deviation), sole N source” value was 0.535±0.039 OD540 in assay [1]; 0.487±0.020 OD540 in assay [2]; 0.239±0.008 OD540 in assay [3]; 0.347±0.004 OD540 in assay [5]; 0.816±0.080 OD540 in assay [7]. In addition, the “Final growth yield (mean OD540 ± standard deviation), sole P source” value in assay [1] came to 1.050±0.018 OD540; in assay [2] it was 0.869±0.094 OD540; in assay [3], 0.748±0.019 OD540; in assay [5], 0.827±0.013 OD540; in assay [7], 0.980±0.005 OD540. Further, the “Growth on 2AEP as sole P, sole N or sole N and sole P source” value in assay [4] was “capable of growth”. The Kd in assay [6] was 0.05 to 0.1 µM; in assay [8] it was 0.023 ± 0.004 µM. Moreover, in assay [8], the “Kd of AepX in words” value was “nanomolar range”.
For `NCP(=O)(O)O` [Aminomethylphosphonate], the Kd was 16.6 µM in assay [6] (E. coli PhnD, previous studies) and 4490 ± 808 µM in assay [8] (microscale thermophoresis, recombinant S. stellulata AepX, 22 °C).
For ammonium [NH4], the “Final growth yield (mean OD540 ± standard deviation), sole N source” value in assay [1] is 0.776±0.044 OD540; in assay [3], 0.257±0.004 OD540; in assay [5], 0.397±0.035 OD540; in assay [7] it was 0.680±0.016 OD540.
In the case of orthophosphate [Pi], the “Final growth yield (mean OD540 ± standard deviation), sole P source” value was 0.90±0.018 OD540 in assay [1]; 1.003±0.030 OD540 in assay [2]; 1.100±0.037 OD540 in assay [3]; 1.045±0.020 OD540 in assay [5]; 1.01±0.07 OD540 in assay [7].

(Values after PMC8316502 (Nature Communications, 2021).)
